Patent US11744819B2, “Antibiotic cannabinoid-terpene formulations” (priority 2019, dated 2023)
≈ marks a conversion by molar mass, not a printed value. Where “and” joins values, the source holds several entries; their conditions need not be identical. Equal values may be shown once. Read-outs that look alike come from different tables or passages of the source.

Columns and labels:
[1] = tested on: E. faecium 3303; assay: microbe, parasite or virus in culture; format: cell-based, Enterococcus faecium; details: for MIC Alone / MIC In combination / Max. fold change in MIC: E. faecium 3303; for MIC Alone: compound alone in checkerboard; for Max. fold change in MIC: decrease; for activities of the terpene with CBC, CBO, or CBG: terpene-cannabinoid combinations
Description: In therapeutic applications, synergy between active ingredients occurs when an observed combined therapeutic effect is greater than the sum of therapeutic effects of individual active ingredients, or a new therapeutic effect is produced that the active ingredients could not produce alone. […] In this context, the enhancement of therapeutic effect may take the form of increased efficacy or potency and/or decreased adverse effects. The synergistic effect may be mediated in whole or in part by the pharmacokinetics and/or pharmacodynamics of the active ingredients in a subject, so that the amount and proportion of the ingredients in the formulation may be synergistic in vivo. This in vivo synergy may be effected with a formulation that includes the active ingredients in amounts and proportions that are also synergistic in in vitro assays of efficacy. As used herein, the term “synergistically effective amounts” accordingly refers to amounts that are synergistic in vivo and/or in vitro. A numeric quantification of synergy is often expressed as a fractional inhibitory concentration index (FICI), which represents the sum of the fractional inhibitory concentrations (FICs) of each drug tested, where the FIC is determined for each drug by dividing the minimum inhibitory concentration (MIC, the lowest concentration of the drug which prevents visible growth of the bacterium in a standard in vitro assay-standard colorometric assay based on resazurin) of each drug when used in combination by the MIC of each drug when used alone. In very general terms, a FICI lower or higher than 1 indicates positively correlated activity (at least additive or potentiation) or an absence of positive interactions, respectively. More definitively, synergy of two compounds may be conservatively defined as a FICI of ::::0.5 (see Odds, 2003; with additivity or potentiation corresponding to a FICI of >0.5 to ::::0.75; no interaction (indifference) corresponding to a FICI of >1 to ::::4; and antagonism corresponding to a FICI of >>4). Synergy of three compounds has been defined as a FICI of ::::1.0. (Berenbaum, 1978; Yu et al., 1980). To estimate the optimal concentrations in triple combinations, the optimal concentrations of trans-caryophyllene and cannabinoid were utilized in combination with a series of daptomycin dilutions.
(§1) Pre-cultures of bacteria growing in their corresponding liquid media (defined below) were diluted to an 00600 of 0.0025 and 100 μl was added to 100 μl of medium containing serial 2-fold dilutions of cannabinoid (cannabinoid stocks, in methanol or acetonitrile for acidic forms, were diluted in growth medium) in 96-well plates. Plates were then incubated for 20-24 h at 37° C., and growth was recorded as 00600 in a Thermo Scientific™ Varioskan™ Flash Multimode Reader.
Method for Tables 4-7. Interaction of Cannabinoids CBC, CBD and CBG with Terpenes and Daptomycin:
(§2) FICI values was determined in a 96 well checkerboard format using the MIC assay for cannabinoids (compound A), terpenes (compound B), and daptomycin (compound C) alone and in combinations. Terpene stocks were prepared in DMSO and diluted in the growth medium. The fractional inhibitory concentration for each compound was calculated as follows: FICA=(MIC of compound A in the presence of compound B)/(MIC of compound A alone). Similarly, the FICs for compounds Band C were calculated. The FICI was calculated as FICA plus FICs plus FICc.

[2] = tested on: E. faecium VRE 55A6; assay: microbe, parasite or virus in culture; format: cell-based, Enterococcus faecium; details: E. faecium VRE 55A6
Description: In therapeutic applications, synergy between active ingredients occurs when an observed combined therapeutic effect is greater than the sum of therapeutic effects of individual active ingredients, or a new therapeutic effect is produced that the active ingredients could not produce alone. […] In this context, the enhancement of therapeutic effect may take the form of increased efficacy or potency and/or decreased adverse effects. The synergistic effect may be mediated in whole or in part by the pharmacokinetics and/or pharmacodynamics of the active ingredients in a subject, so that the amount and proportion of the ingredients in the formulation may be synergistic in vivo. This in vivo synergy may be effected with a formulation that includes the active ingredients in amounts and proportions that are also synergistic in in vitro assays of efficacy. As used herein, the term “synergistically effective amounts” accordingly refers to amounts that are synergistic in vivo and/or in vitro. A numeric quantification of synergy is often expressed as a fractional inhibitory concentration index (FICI), which represents the sum of the fractional inhibitory concentrations (FICs) of each drug tested, where the FIC is determined for each drug by dividing the minimum inhibitory concentration (MIC, the lowest concentration of the drug which prevents visible growth of the bacterium in a standard in vitro assay-standard colorometric assay based on resazurin) of each drug when used in combination by the MIC of each drug when used alone. In very general terms, a FICI lower or higher than 1 indicates positively correlated activity (at least additive or potentiation) or an absence of positive interactions, respectively. More definitively, synergy of two compounds may be conservatively defined as a FICI of ::::0.5 (see Odds, 2003; with additivity or potentiation corresponding to a FICI of >0.5 to ::::0.75; no interaction (indifference) corresponding to a FICI of >1 to ::::4; and antagonism corresponding to a FICI of >>4). […] (Berenbaum, 1978; Yu et al., 1980). To estimate the optimal concentrations in triple combinations, the optimal concentrations of trans-caryophyllene and cannabinoid were utilized in combination with a series of daptomycin dilutions.
as §1, §2

[3] = tested on: Mycobacterium abscessus ATCC 19977; assay: MIC determination (resazurin); format: cell-based
[4] = tested on: Enterococcus faecium 33D3
[5] = tested on: E. faecium clinical isolate 55A6 (vancomycin and daptomycin resistant); details: clinical enterococcal strain 55A6, vancomycin and daptomycin resistant
[6] = tested on: Staphylococcus aureus MRSA; assay: microbe, parasite or virus in culture; format: cell-based
[7] = tested on: E. faecium clinical isolate 58C9 (vancomycin and daptomycin resistant); details: clinical enterococcal strain 58C9, vancomycin and daptomycin resistant
[8] = tested on: Enterococcus faecalis; assay: MIC determination; format: cell-based
[9] = tested on: E. faecium clinical isolate 69C6 (vancomycin resistant); details: clinical enterococcal strain 69C6, vancomycin resistant
[10] = tested on: Staphylococcus epidermidis ATCC 12228; assay: MIC determination; format: cell-based; details: Staphylococcus epidermidis, ATCC12228
[11] = tested on: Mycobacterium tuberculosis H37Rv; assay: MIC determination (PrestoBlue); format: cell-based
[12] = tested on: Streptococcus pyogenes ATCC 51878; assay: MIC determination; format: cell-based; details: Streptococcus pyogenes, ATCC51878
[13] = tested on: Staphylococcus epidermidis ATCC 14990; assay: MIC determination; format: cell-based; details: Staphylococcus epidermidis, ATCC14990
[14] = tested on: E. faecium clinical isolate 58C9 (vancomycin and daptomycin resistant); assay: microbe, parasite or virus in culture; details: Enterococcus faecium
[15] = tested on: E. faecium clinical isolate 55A6 (vancomycin and daptomycin resistant); assay: microbe, parasite or virus in culture; details: Enterococcus faecium
[16] = tested on: Enterococcus faecium 33D3; assay: microbe, parasite or virus in culture
[17] = tested on: E. faecium clinical isolate 69C6 (vancomycin resistant); assay: microbe, parasite or virus in culture; details: Enterococcus faecium
[18] = triple, with daptomycin and CBC
[19] = triple, with daptomycin and CBD
[20] = triple, with daptomycin and CBG
[21] = Mycobacteroides abscessus, ATCC19977
[22] = 33D3, Enterococcus faecium 33D3 (Table 1)
[23] = 33D3, clinical enterococcal strain 3303
[24] = Mycobacterium tuberculosis, H37RV, Media 7H9, read-out: MIC
[25] = Mycobacterium tuberculosis, H37RV, Media PB, read-out: MIC

For `C=C1CC/C=C(\C)CC[C@@H]2[C@@H]1CC2(C)C` (relative stereo) [Trans-caryophyllene, trans-caryophyllene], the “MIC Alone” value [1] was >16 µg/mL and 16 µg/mL, the “MIC Alone” value ([1]; listed as Tram-caryophyllene) was 32 µg/mL and the “MIC In combination” value ([1]; pairwise, with CBC) was 0.25 µg/mL. For the same compound, the “Max. fold change in MIC” value ([1]; pairwise, with CBC) was 64 l fold, the “MIC In combination” value ([1]; pairwise, with CBD) was 2 µg/mL and the “MIC In combination” value ([1]; pairwise, with CBG) was 4 µg/mL. The “Max. fold change in MIC” value ([1]; pairwise, with CBG) was 8″′ fold, the “MIC In combination” value ([1]; pairwise, with daptomycin) was 4 µg/mL and the “Max. fold change in MIC” value ([1]; pairwise, with daptomycin) was >4 l fold and >4″′ fold. The “MIC In combination” value [1, 18] was 2 µg/mL, the “Max. fold change in MIC” value [1, 18] was 8 l fold and the “MIC In combination” value [1, 19] was 2 µg/mL. The “Max. fold change in MIC” value [1, 19] was 8 fold, the “MIC In combination” value [1, 20] was 1 µg/mL and the “Max. fold change in MIC” value [1, 20] was 16 fold. For the same compound, the “activities of the terpene with CBC, CBO, or CBG” value [1] was “synergistic activities”, the “MIC In combination” value ([2]; pairwise, with CBC) was 1 µg/mL and the “Max. fold change in MIC” value ([2]; pairwise, with CBC) was over 32 fold. For the same compound, the “MIC In combination” value ([2]; pairwise, with CBD) was 8 µg/mL, the “Max. fold change in MIC” value ([2]; pairwise, with CBD) was over 4 fold and the “MIC In combination” value ([2]; pairwise, with CBG) was over 32 µg/mL. The “Max. fold change in MIC” value ([2]; pairwise, with CBG) was “none”, the “MIC In combination” value ([2]; pairwise, with daptomycin) was 2 µg/mL and the “Max. fold change in MIC” value ([2]; pairwise, with daptomycin) was over 8 fold. For the same compound, the “MIC In combination” value [2, 18] was 2 µg/mL, the “Max. fold change in MIC” value [2, 18] was over 32 fold and the “MIC In combination” value [2, 19] was 2 µg/mL. For the same compound, the “Max. fold change in MIC” value [2, 19] was over 32 fold, the “MIC In combination” value [2, 20] was 2 µg/mL and the “Max. fold change in MIC” value [2, 20] was over 32 fold.
`CCCCCc1cc2c(c(O)c1C(=O)O)C=CC(C)(CCC=C(C)C)O2` (stereo not shown) [CBCA, cannabichromic acid] showed an MIC ([3]; Mycobacterium abscessus ATCC 19977) of 4 µg/mL (≈ 11.2 µM), an MIC ([4]; Enterococcus faecium 33D3 (Table 1)) of 4 µg/mL (≈ 11.2 µM) and an MIC ([4]; clinical enterococcal strain 3303) of 4 µg/mL (≈ 11.2 µM). It also gave an MIC [5] of 2 µg/mL (≈ 5.58 µM), an MIC [6] of 4 µg/mL (≈ 11.2 µM) and an MIC [7] of 4 µg/mL (≈ 11.2 µM). For the same compound, the MIC [8] was 4 µg/mL (≈ 11.2 µM), the MIC [9] was 4 µg/mL (≈ 11.2 µM) and the MIC [10] was 2 µg/mL (≈ 5.58 µM). For the same compound, the MIC ([11]; Media 7H9) was 2 µg/mL (≈ 5.58 µM), the MIC ([11]; Media PB) was 4 µg/mL (≈ 11.2 µM) and the MIC [12] was 0.5 to 1 µg/mL. It also gave an MIC [13] of 2 µg/mL (≈ 5.58 µM).
With `C=C(C)[C@@H]1CCC(C)=C[C@H]1c1c(O)cc(CCCCC)c(C(=O)O)c1O` [CBDA, cannabidiolic acid] the MIC [3, 21] was 32 µg/mL (≈ 89.3 µM), the MIC [14] was 16 µg/mL (≈ 44.6 µM) and the MIC [15] was 16 µg/mL (≈ 44.6 µM). The MIC [6] was 16 µg/mL (≈ 44.6 µM), the MIC [8] was 16 µg/mL (≈ 44.6 µM) and the MIC [10] was 4 µg/mL (≈ 11.2 µM). It also gave an MIC [16, 22] of 16 µg/mL (≈ 44.6 µM), an MIC [16, 23] of 16 µg/mL (≈ 44.6 µM) and an MIC [11, 24] of 2 µg/mL (≈ 5.58 µM). The MIC [11, 25] was 4 µg/mL (≈ 11.2 µM), the MIC [12] was 8 µg/mL (≈ 22.3 µM) and the MIC [13] was 4 µg/mL (≈ 11.2 µM). The MIC [17] was 16 µg/mL (≈ 44.6 µM).
With `CCCCCc1cc(O)c(C/C=C(\C)CCC=C(C)C)c(O)c1C(=O)O` [CBGA, cannabigerolic acid] the MIC [3, 21] was 16 µg/mL (≈ 44.4 µM), the MIC [14] was 16 µg/mL (≈ 44.4 µM) and the MIC [15] was 8 µg/mL (≈ 22.2 µM). The MIC [6] was 1 µg/mL (≈ 2.77 µM), the MIC [8] was 8 µg/mL (≈ 22.2 µM) and the MIC [10] was 2 µg/mL (≈ 5.55 µM). It also gave an MIC [16, 22] of 16 µg/mL (≈ 44.4 µM), an MIC [16, 23] of 16 µg/mL (≈ 44.4 µM) and an MIC [11, 24] of 4 µg/mL (≈ 11.1 µM). For the same compound, the MIC [11, 25] was 2 µg/mL (≈ 5.55 µM), the MIC [12] was 2 µg/mL (≈ 5.55 µM) and the MIC [13] was 2 µg/mL (≈ 5.55 µM). For the same compound, the MIC [17] was 8 µg/mL (≈ 22.2 µM).
With `C/C1=C\CC/C(C)=C/CC(C)(C)/C=C/C1` [a-humulene] the “activities of the terpene with CBC, CBO, or CBG” value [1] was “synergistic activities”.
